Data reported in patent US20230047816A1 (priority 2018, published 2023).

These compounds were tested against Recombinant full length human PFKFB3 (Homo sapiens, UniProt Q16875) (assay: PFKFB3 kinase activity assay (ADP production, ADP-Glo)).
Chain of Recombinant full length human PFKFB3 (Q16875 whole entry): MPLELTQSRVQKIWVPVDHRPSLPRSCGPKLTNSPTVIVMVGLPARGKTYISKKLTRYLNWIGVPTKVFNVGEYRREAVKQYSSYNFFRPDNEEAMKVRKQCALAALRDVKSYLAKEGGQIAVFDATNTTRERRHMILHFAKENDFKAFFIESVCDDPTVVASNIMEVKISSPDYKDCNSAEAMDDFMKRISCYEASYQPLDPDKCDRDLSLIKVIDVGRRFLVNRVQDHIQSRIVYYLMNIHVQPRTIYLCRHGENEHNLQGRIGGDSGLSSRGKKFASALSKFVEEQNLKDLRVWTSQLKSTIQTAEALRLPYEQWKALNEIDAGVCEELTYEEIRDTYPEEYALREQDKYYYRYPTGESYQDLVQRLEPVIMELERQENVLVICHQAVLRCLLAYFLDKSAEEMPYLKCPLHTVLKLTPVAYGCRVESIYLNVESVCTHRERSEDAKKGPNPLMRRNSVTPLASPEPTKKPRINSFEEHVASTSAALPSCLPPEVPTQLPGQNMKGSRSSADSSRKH

Compound	IC50
O=C(O)c1cc(C(=O)Nc2cc(-c3ccc(F)c(F)c3)ccc2C(=O)O)c(C(=O)O)cc1O [Example 28, 2-({4-carboxy-3′,4′-difluoro-[1,1′-biphenyl]-3-yl}carbamoyl)-5-hydroxybenzene-1,4-dicarboxylic acid]	< 500 nM
NC(=O)c1ccc2c(c1)C(=O)N(c1cc(-c3ccccc3)ccc1C(=O)O)C2=O [Example 28]	500 to 2000 nM
COc1ccc(-c2c(C)sc(NC(=O)c3cc(C(=O)O)ccc3C(=O)O)c2C#N)cc1 [Example 29, 2-{[3-cyano-4-(4-methoxyphenyl)-5-methylthiophen-2-yl]carbamoyl}benzene-1,4-dicarboxylic acid]	5000 to 20000 nM
O=C(O)c1cc(-c2ccccc2)ccc1N1C(=O)c2ccc(-c3cn(Cc4ccccc4)nn3)cc2C1=O [Example 29]	2000 to 5000 nM
COc1ccc(-c2c(C)sc(NC(=O)c3ccc(C(=O)O)cc3C(=O)O)c2C#N)cc1 [Example 30, 4-{[3-cyano-4-(4-methoxyphenyl)-5-methylthiophen-2-yl]carbamoyl}benzene-1,3-dicarboxylic acid]	< 500 nM
CC(C)(C)C(=O)OCn1cc(-c2ccc3c(c2)C(=O)N(c2ccc(-c4ccccc4)cc2C(=O)O)C3=O)nn1 [Example 30]	2000 to 5000 nM
O=C(O)c1cc(-c2ccccc2)ccc1N1C(=O)c2ccc(-c3c[nH]nn3)cc2C1=O [Example 31, 4-[1,3-Dioxo-5-(1H-[1,2,3]triazol-4-yl)-1,3-dihydroisoindol-2-yl]biphenyl-3-carboxylic Acid]	< 500 nM
CN(C)C(=O)c1cc(C(=O)O)c(O)cc1C(=O)Nc1cc(-c2ccc(Cl)cc2Cl)ccc1C(=O)O [Example 32, 3-(4-carboxy-2-(dimethylcarbamoyl)-5-hydroxybenzamido)-2′,4′-dichloro-[1,1′-biphenyl]-4-carboxylic acid]	500 to 2000 nM
COc1ccc(-c2c(C)sc(NC(=O)c3cc(O)c(C(=O)O)cc3C(=O)O)c2C#N)cc1 [Example 33, 4-((3-cyano-4-(4-methoxyphenyl)-5-methylthiophen-2-yl)carbamoyl)-6-hydroxyisophthalic acid]	< 500 nM
COC(=O)c1cc(-c2ccccc2)ccc1N1C(=O)c2ccc(-c3c[nH]nn3)cc2C1=O [Example 33]	< 20000 nM
CS(C)(=O)=NC(=O)c1ccc(C(=O)O)c(C(=O)Nc2cc(-c3ccc(F)c(F)c3)ccc2C(=O)O)c1 [Example 36, 3-(2-carboxy-5-{[methyl(methylidene)oxo-λ^6-sulfanyl]carbamoyl}benzamido)-3′,4′-difluoro-[1,1′-biphenyl]-4-carboxylic acid]	500 to 2000 nM
O=C(O)c1cc(C(=O)Nc2cc(-c3ccc(F)c(F)c3)ccc2O)c(C(=O)O)cc1O [Example 37, 2-({3′,4′-difluoro-4-hydroxy-[1,1′-biphenyl]-3-yl}carbamoyl)-5-hydroxybenzene-1,4-dicarboxylic acid]	< 500 nM
COC(=O)c1ccc(-c2ccccc2)cc1N1C(=O)c2ccc(C(=O)O)cc2C1=O [Example 37]	500 to 2000 nM
O=C(O)c1ccc(C(=O)Nc2ncc([N+](=O)[O-])s2)c(C(=O)O)c1 [Example 38, 4-[(5-nitro-1,3-thiazol-2-yl)carbamoyl]benzene-1,3-dicarboxylic acid]	< 500 nM
COC(=O)c1cc(-c2ccccc2)c(OC)cc1N1C(=O)c2ccc(-c3c[nH]nn3)cc2C1=O [Example 38]	5000 to 20000 nM
O=C(O)c1ccc(C(=O)O)c(C(=O)Nc2ncc([N+](=O)[O-])s2)c1 [Example 39, 2-[(5-nitro-1,3-thiazol-2-yl)carbamoyl]benzene-1,4-dicarboxylic acid]	500 to 2000 nM
CCCCOC(=O)c1ccc2c(c1)C(=O)N(c1cc(OC)c(-c3ccccc3)cc1C(=O)OC)C2=O [Example 39]	< 20000 nM
O=C(O)c1ccc(C(=O)O)c(C(=O)Nc2nc(-c3ccccc3)cs2)c1 [Example 40, 2-[(4-phenyl-1,3-thiazol-2-yl)carbamoyl]benzene-1,4-dicarboxylic acid]	< 20000 nM
COC(=O)c1cc(-c2ccccc2)ccc1N1C(=O)c2ccc(C(=O)NS(C)(=O)=O)cc2C1=O [Example 40]	< 20000 nM
CS(C)(=O)=NC(=O)c1ccc(C(=O)Nc2cc(-c3ccc(F)c(F)c3)ccc2C(=O)O)c(C(=O)O)c1 [Example 41, 3-(2-carboxy-4-{[methyl(methylidene)oxo-λ^6-sulfanyl]carbamoyl}benzamido)-3′,4′-difluoro-[1,1′-biphenyl]-4-carboxylic acid]	< 500 nM
COC(=O)c1ccc(-c2ccccc2)cc1N1C(=O)c2ccc(C(=O)NS(C)(=O)=O)cc2C1=O [Example 41]	< 20000 nM
CN(C)C(=O)c1cc(O)c(C(=O)N=S(C)(C)=O)cc1C(=O)Nc1cc(-c2ccc(Cl)cc2Cl)ccc1C(=O)O [Example 42, 2′,4′-dichloro-3-(5-((dimethyl(oxo)-λ^6-sulfanylidene)carbamoyl)-2-(dimethylcarbamoyl)-4-hydroxybenzamido)-[1,1′-biphenyl]-4-carboxylic acid]	2000 to 5000 nM
COC(=O)c1cc(-c2ccccc2)c(OC)cc1N1C(=O)c2ccc(C(=O)O)cc2C1=O [Example 42]	500 to 2000 nM

Compound	IC50
O=C(O)c1cc(C(=O)O)c(C(=O)Nc2cc(-c3ccc(Cl)cc3Cl)ccc2C(=O)O)cc1O [Example 43, 4-({4-carboxy-2′,4′-dichloro-[1,1′-biphenyl]-3-yl}carbamoyl)-6-hydroxybenzene-1,3-dicarboxylic acid]	< 500 nM
O=C(O)c1ccc2c(c1)C(=O)N(c1cc(-c3ccccc3)ccc1-c1nnn[nH]1)C2=O [Example 43]	500 to 2000 nM
O=C(O)c1cc(C(=O)Nc2cc(-c3ccc(Cl)cc3Cl)ccc2C(=O)O)c(C(=O)O)cc1O [Example 44, 2-({4-carboxy-2′,4′-dichloro-[1,1′-biphenyl]-3-yl}carbamoyl)-5-hydroxybenzene-1,4-dicarboxylic acid]	< 500 nM
COC(=O)c1ccc(-c2ccccc2)cc1N1C(=O)c2ccc(-c3nnn[nH]3)cc2C1=O [Example 44]	2000 to 5000 nM
O=C(O)c1cc(C(=O)O)c(C(=O)Nc2cc(-c3ccc(F)c(F)c3)ccc2C(=O)O)cc1Cl [Example 45, 4-({4-carboxy-3′,4′-difluoro-[1,1′-biphenyl]-3-yl}carbamoyl)-6-chlorobenzene-1,3-dicarboxylic acid]	< 500 nM
O=C(O)c1ccc2c(c1)C(=O)N(c1cc(-c3ccc(F)cc3)ccc1C(=O)O)C2=O [Example 45]	< 500 nM
O=C(O)c1cc(C(=O)Nc2cc(-c3ccc(F)c(F)c3)ccc2C(=O)O)c(C(=O)O)cc1Cl [Example 46, 2-({4-carboxy-3′,4′-difluoro-[1,1′-biphenyl]-3-yl}carbamoyl)-5-chlorobenzene-1,4-dicarboxylic acid]	< 500 nM
O=C(O)c1ccc2c(c1)C(=O)N(c1cc(-c3cccc(F)c3)ccc1C(=O)O)C2=O [Example 46]	< 500 nM
COc1ccc(-c2nnn[nH]2)c(N2C(=O)c3ccc(C(=O)O)cc3C2=O)c1 [Example 47, 2-[5-Methoxy-2-(1H-tetrazol-5-yl)phenyl]-1,3-dioxo-2,3-dihydro-1H-isoindole-5-carboxylic acid]	500 to 2000 nM
O=C(O)c1ccc2c(c1)C(=O)N(c1cc(-c3cccs3)ccc1C(=O)O)C2=O [Example 48, 2-(2-Carboxy-5-thiophen-2-yl-phenyl)-1,3-dioxo-2,3-dihydro-1H-isoindole-5-carboxylic Acid]	< 500 nM
CN(C)CCOC(=O)c1ccc(-c2ccc(Cl)cc2Cl)cc1NC(=O)c1ccc(C(=O)N=S(C)(C)=O)cc1C(=O)O [Example 49, 2-[(2′,4′-dichloro-4-{[2-(dimethylamino)ethoxy]carbonyl}-[1,1′-biphenyl]-3-yl)carbamoyl]-5-{[dimethyl(oxo)-λ^6-sulfanylidene]carbamoyl}benzoic acid]	< 500 nM
O=C(O)c1ccc(-c2cccnc2)cc1N1C(=O)c2ccc(-c3c[nH]nn3)cc2C1=O [Example 49]	2000 to 5000 nM
CN(C)CCCOC(=O)c1ccc(-c2ccc(Cl)cc2Cl)cc1NC(=O)c1cc(O)c(C(=O)O)cc1C(=O)O [Example 51, 4-[(2′,4′-dichloro-4-{[3-(dimethylamino)propoxy]carbonyl}-[1,1′-biphenyl]-3-yl)carbamoyl]-6-hydroxybenzene-1,3-dicarboxylic acid]	< 500 nM
O=C(O)c1ccc(-c2ccc(F)cc2F)cc1N1C(=O)c2ccc(-c3c[nH]nn3)cc2C1=O [Example 51]	< 500 nM
CC1(C)CCC(c2ccc(C(=O)O)c(NC(=O)c3cc(O)c(C(=O)O)cc3C(=O)O)c2)CC1 [Example 52, 4-{[2-carboxy-5-(4,4-dimethylcyclohexyl)phenyl]carbamoyl}-6-hydroxybenzene-1,3-dicarboxylic acid]	< 500 nM
O=C(O)c1ccc2c(c1)C(=O)N(c1cc(-c3cccnc3)ccc1C(=O)O)C2=O [Example 52]	< 500 nM
CC1(C)CCN(c2ccc(C(=O)O)c(NC(=O)c3cc(O)c(C(=O)O)cc3C(=O)O)c2)CC1 [Example 53, 4-{[2-carboxy-5-(4,4-dimethylpiperidin-1-yl)phenyl]carbamoyl}-6-hydroxybenzene-1,3-dicarboxylic acid]	< 500 nM
O=C(O)c1ccc2c(c1)C(=O)N(c1cc(-c3ccc(F)cc3F)ccc1C(=O)O)C2=O [Example 53]	< 500 nM
CN(C)CCCOC(=O)c1ccc(-c2ccc(Cl)cc2Cl)cc1NC(=O)c1cc(C(=O)O)c(O)cc1C(=O)O [Example 54, 2-[(2′,4′-dichloro-4-{[3-(dimethylamino)propoxy]carbonyl}-[1,1′-biphenyl]-3-yl)carbamoyl]-5-hydroxybenzene-1,4-dicarboxylic acid]	< 500 nM
O=C1c2ccc(-c3c[nH]nn3)cc2C(=O)N1c1cc(-c2ccccc2)ccc1-c1nnn[nH]1 [Example 54]	2000 to 5000 nM
CCOC(=O)c1ccc(-c2ccc(Cl)cc2Cl)cc1NC(=O)c1cc(O)c(C(=O)O)cc1C(=O)O [Example 55, 4-{[2′,4′-dichloro-4-(ethoxycarbonyl)-[1,1′-biphenyl]-3-yl]carbamoyl}-6-hydroxybenzene-1,3-dicarboxylic acid]	< 500 nM
COc1ccc(-c2ccc(C(=O)O)c(N3C(=O)c4ccc(C(=O)O)cc4C3=O)c2)cc1 [Example 55]	< 500 nM
